Patent US20240336567A1, “PESTICIDAL AND HERBICIDAL COMPOUNDS AND METHODS OF USE THEREOF” (AG Plenus Ltd, priority 2021, published 2024)

Columns and labels:
[1] = in vitro thermal shift (binding of compound to the target); conditions: thermal shift caused by binding of the compound to the (unnamed) target
Arabidopsis thaliana [2] = assay: HTPS (high throughput on soil) - Dicot - Post-emergence; format: in vivo; conditions: N/A: not active; for Emax: read-out: HTPS - Dicot - Post Max effect; for HTPS - Dicot - Post ED50: from normalized green area
Protocol: (§1) Arabidopsis thaliana seeds were sown in 96 well plates filled with irrigated Sweet sand (10%>clay) that is washed from salts and minerals using tap water. 5-10 seeds were sown in the center of each well. 7-8 days post sowing, at 2 true leaves stage, thinning out was performed to ensure that compound application is done on a single plant per well. The plates were placed in a controlled greenhouse in a random order inside a bath which allows flooding irrigation with tap water supplemented with a fertilizer. Applied compounds were dissolved into a final solution of 50% acetone, 49.9% DDW, 0.1% tween-20. A 96 well plate was used as a stock plate for preparing application solutions for 8 repeats. Each row contained different concentrations per chemical. Maximal concentration for application was 1.5 Kg/Ha and dilution factor is 2.5. Chemical application was performed one day after thinning out in a chemical hood. 5 μL applied on first two true leaves in each well using 12 channel pipettes. Data collection: RGB (red, green, blue) data for green area per well was documented using camera. Data is collected at a few time points during the experiment: one day after thinning and before chemical application, two-, six- or nine-days post application. During the last two documentations, visual phenotyping was performed. Data analysis: Given RGB results and visual phenotype scores, a student t-test conducted to compare between treatment and control performance for continuous data (RGB) and Fisher exact test to analyze the non-continuous data (phenotypic scores). Dose-Response curves are generated for each treatment to infer ED50 and max. inhibition parameters, using treatment's log concentration range as the […] variable and normalized green area. Plate imaging performed at 11 and 18 DAA. RGB data for green area per well was documented and used to extract % inhibition. Dose-Response curves were built for each treatment to infer ED50, ED75 and ED90 parameters, using treatment's log concentration range as the independent variable and normalized green area as the dependent variable. Treatments were compared to controls performance given RGB results and using student's t-test (p-val≤0.05).

Arabidopsis thaliana [3] = assay: HTPS - Dicot - Pre-emergence; format: in vivo; conditions: N/A: not active; for Emax: read-out: HTPS - Dicot - Pre Max effect
Protocol: as §1, with “area. These experiments are conducted similarly except that either Arabidopsis thaliana or Eragrostis teff seeds were sowed (5-10 or 5-7, respectively), plant thinning out was not performed, compound dissolved into a final solution of 50% acetone, 49.9% DDW, compound application was done at 30 μL volume per well directly on sowed soil before plant emergence and data was collected 10 or 7 days after chemical application on dicot or monocot plants, respectively.” for “area.”

Eragrostis teff = assay: HTPS - Monocot - Pre-emergence; format: in vivo; conditions: N/A: not active; for Emax: read-out: HTPS - Monocot - Pre Max effect
Protocol: as §1, with “area. These experiments are conducted similarly except that either Arabidopsis thaliana or Eragrostis teff seeds were sowed (5-10 or 5-7, respectively), plant thinning out was not performed, compound dissolved into a final solution of 50% acetone, 49.9% DDW, compound application was done at 30 μL volume per well directly on sowed soil before plant emergence and data was collected 10 or 7 days after chemical application on dicot or monocot plants, respectively.” for “area.”

SETVI = assay: In-planta LTP pre-emergence, visual phenotype; format: in vivo, Setaria viridis; conditions: Setaria viridis, 432 h, monocot, read-out: IG Inhibited growth (% effect)
Protocol: A basic panel of 8 weed species (Table 3) were sowed in 4×4×7 cm plastic pots containing inert sand (Sweet sand), intensively washed using osmosis water. Each specie was sowed in a separate pot. In each pot 10-15 seeds were sowed according to the specie viability. Sowing was performed one day before application. The plants were grown for 21 days in a controlled greenhouse (26±2° C. day 20±2° C. night). Hood irrigation (tap water+Shefer 5:3:8 8 mM) was given at a 50% water content by weight. Compounds were soluble in water (DDW), and commercial herbicide control was soluble in formulation B (Table 4). Application was conducted with an industrial sprayer (TeeJet 6502E nozzle) at a rate of 2 kg/ha and spray volume of […]. Pre-emergence advanced dose response experiment application was conducted at six rates between 1-0.0312 kg/ha and spray volume of […]. Percentage of emergence was evaluated at 15 DAA. Visual phenotyping was recorded using a scale of 0-6 (0: no visible effect, 6: maximum effect) at 18 DAA. All experiments included an untreated control, a solvent control and a positive control (commercial herbicide A.I.). Statistical analysis for visual phenotyping determined by a median value of ≥3.5 and Fisher test (pval≤0.05). Statistical analysis for plant emergence determined by % emergence ≥50 and T test (pval≤0.05), as well as Wilcox test (pval≤0.05).

Structure (SMILES) | in vitro Thermal Shift [1] | Emax (Arabidopsis thaliana [2]) | HTPS - Dicot - Post ED50 (Arabidopsis thaliana [2]) | HTPS - Dicot - Pre ED50 (Arabidopsis thaliana [3]) | Emax (Arabidopsis thaliana [3]) | Emax (Eragrostis teff) | HTPS - Monocot - Pre ED50 (Eragrostis teff) | pest or weed control at 2000 g/ha (SETVI)
CC(N)CSc1cccc(C(=O)O)c1 (stereo not shown) [Compound 140] | 5 °C | 15% | – | – | 0% | 33% | – | –
NC1(COc2cccc(C(=O)O)c2)CC1 [Compound 121] | 11 °C | 99% | 256 g/ha | – | – | – | – | –
CC(N)CNc1ccc(Cl)c(C(=O)O)c1 (stereo not shown) [Compound 139] | 9 °C | – | – | 256 g/ha | 100% | – | – | –
CCCCOC(=O)c1cccc(OCC(C)N)n1 (stereo not shown) [Compound 184] | 5 °C | 100% | 36 g/ha | – | – | – | – | –
CCOC(=O)CCOC(=O)c1cccc(OCC(C)N)n1 (stereo not shown) [Compound 177] | 6 °C | 100% | 27 g/ha | – | – | – | – | –
CC(N)COc1cc(Cl)c(F)c(C(=O)O)c1 (stereo not shown) [Compound 186] | 16 °C | 100% | 200 g/ha | – | – | – | – | –
CC(N)COc1cccc(C(=O)OCCC(=O)O)n1 (stereo not shown) [Compound 183] | – | 100% | 17 g/ha | – | – | – | – | –
CC(CN)Nc1cccc(C(=O)O)c1 (stereo not shown) [Compound 119] | 7 °C | 33% | – | – | 22% | 3% | – | –
NC1CCCC1Oc1cccc(C(=O)O)n1 (stereo not shown) [Compound 173] | – | 100% | 463 g/ha | – | – | – | – | –
C#CCOC(=O)c1cccc(OCC(C)N)n1 (stereo not shown) [Compound 185] | 10 °C | 100% | 30 g/ha | – | – | – | – | –
NCCNc1ccc(Cl)c(C(=O)O)c1 [Compound 133] | 6 °C | 40% | – | – | 5% | 0% | – | –
CC(CN)Oc1ccc(F)c(C(=O)O)c1 (stereo not shown) [Compound 101] | 13 °C | 24% | – | – | 20% | 12% | – | –
NC1CCCC1Oc1cccc(C(=O)O)c1 (stereo not shown) [Compound 122] | 16 °C | 100% | 19 g/ha | – | – | 89% | – | –
COC(=O)CCOC(=O)c1cccc(OCC(C)N)n1 (stereo not shown) [Compound 182] | – | 100% | 72 g/ha | – | – | – | – | –
CC(N)COc1cccc(C(=O)OCC(=O)O)n1 (stereo not shown) [Compound 181] | 14 °C | 100% | 23 g/ha | – | – | – | – | –
CCOC(=O)COC(=O)c1cccc(OCC(C)N)n1 (stereo not shown) [Compound 179] | 9 °C | 100% | 22 g/ha | – | – | – | – | –
CCC(N)COc1cccc(C(=O)O)n1 (stereo not shown) [Compound 168] | 15 °C | 100% | 22 g/ha | – | – | – | – | –
NCCSc1cccc(C(=O)O)c1 [Compound 151] | 5 °C | – | – | – | – | – | – | –
CCOC(=O)CNC(=O)c1cccc(OCC(C)N)n1 (stereo not shown) [Compound 176] | 2 °C | 100% | 85 g/ha | – | – | – | – | –
Cc1ccc(OCCN)cc1C(=O)O [Compound 152] | 4 °C | – | – | – | – | – | – | –

Second part, led by results:

in vitro Thermal Shift [1] | Structure (SMILES) | Emax (Arabidopsis thaliana [2]) | HTPS - Dicot - Post ED50 (Arabidopsis thaliana [2]) | HTPS - Dicot - Pre ED50 (Arabidopsis thaliana [3]) | Emax (Arabidopsis thaliana [3]) | Emax (Eragrostis teff) | HTPS - Monocot - Pre ED50 (Eragrostis teff) | pest or weed control at 2000 g/ha (SETVI)
8 °C | COC(=O)c1cccc(OCC(C)N)n1 (stereo not shown) [Compound 218] | 100% | 14 g/ha | – | – | – | – | –
15 °C | C[C@H](N)COc1cccc(C(=O)O)n1 [Compound 175] | 100% | 7 g/ha | 3.8 g/ha | 100% | – | – | –
9 °C | NCCOc1cccc(C(=O)O)c1 [Compound 127] | 100% | 134 g/ha | 180 g/ha | 100% | 94% | – | –
1 °C | CCOC(=O)CNC(=O)c1cccc(OCC(C)N)c1 (stereo not shown) [Compound 178] | 100% | 39 g/ha | – | – | – | – | –
6 °C | CCOC(=O)c1cccc(OCC(C)N)c1 (stereo not shown) [Compound 150] | – | – | 150 g/ha | 100% | – | – | –
13 °C | C[C@H](N)COc1cccc(C(=O)O)c1 [Compound 155] | 100% | 56 g/ha | 60 g/ha | 100% | 100% | 170 g/ha | –
15 °C | C[C@@H](N)COc1cccc(C(=O)O)n1 [Compound 174] | 100% | 44 g/ha | 3.8 g/ha | 100% | – | – | –
12 °C | COC(=O)COC(=O)c1cccc(OCC(C)N)n1 (stereo not shown) [Compound 180] | 100% | 13 g/ha | – | – | – | – | –
14 °C | CC(N)COc1ccc(Cl)c(C(=O)O)c1 (stereo not shown) [Compound 107] | 100% | 400 g/ha | 127 g/ha | 100% | 45% | 660 g/ha | –
3 °C | CCOC(=O)c1cccc(OCC(C)N)n1 (stereo not shown) [Compound 219] | 100% | 48 g/ha | – | – | – | – | –
8 °C | CC(C)(N)COc1cccc(C(=O)O)c1 [Compound 103] | 100% | 157 g/ha | – | – | – | – | –
4 °C | COC(=O)c1cccc(OCC(C)N)c1 (stereo not shown) [Compound 110] | 100% | 38 g/ha | 80 g/ha | 100% | – | – | 80%
